Activity calls are given as the source filed them. The rule behind the calls is not given here.
Tests used:
[1] = test system: Human immunodeficiency virus 1; test: Antiviral activity against HIV1 3B infected human HOS cells expressing human CXCR4 and CD4 assessed as inhibition of viral infection by luciferase reporter gene assay; format: functional, organism-based; details: Human immunodeficiency virus 1, 3B
[2] = Cytotoxicity against human HOS cells; format: cell-based
[3] = molecular target: C-X-C chemokine receptor type 4 (Homo sapiens) (UniProt P61073); test: Antagonist activity at CXCR4; format: functional
Sequence of C-X-C chemokine receptor type 4 (Homo sapiens) (P61073 whole entry): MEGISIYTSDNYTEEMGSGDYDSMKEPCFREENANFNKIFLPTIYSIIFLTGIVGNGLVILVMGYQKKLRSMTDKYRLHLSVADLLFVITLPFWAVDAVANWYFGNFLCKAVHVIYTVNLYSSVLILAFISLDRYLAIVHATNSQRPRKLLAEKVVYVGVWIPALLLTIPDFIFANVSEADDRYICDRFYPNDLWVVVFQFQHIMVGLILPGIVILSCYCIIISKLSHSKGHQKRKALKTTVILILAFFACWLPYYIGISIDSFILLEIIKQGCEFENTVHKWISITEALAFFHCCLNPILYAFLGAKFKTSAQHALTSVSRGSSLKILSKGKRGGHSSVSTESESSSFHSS

[4] = Clearance in rat at 1 mg/kg, iv; format: ADME, organism-based; design: dose 1 mg/kg, route intravenous; details: in vivo
[5] = Volume of distribution at steady state in rat at 1 mg/kg, iv; format: ADME, organism-based; design: dose 1 mg/kg, route intravenous; details: in vivo, read-out: Vdss
[6] = Oral bioavailability in rat at 3 mg/kg; format: ADME, organism-based; details: in vivo
[7] = test system: Human immunodeficiency virus 1; test: Antiviral activity against HIV1 3B infected human HOS cells expressing human CXCR4 and CD4 assessed as inhibition of viral infection in presence of human serum albumin and alpha-acid glycoprotein by luciferase reporter gene assay; format: functional; design: unit not given here
[8] = Half life in rat at 1 mg/kg, iv; format: ADME, organism-based; design: dose 1 mg/kg, route intravenous; details: in vivo
[9] = Oral bioavailability in Beagle dog at 3 mg/kg; format: ADME, organism-based, Canis lupus familiaris; details: in vivo
[10] = Clearance in Beagle dog at 1 mg/kg, iv; format: ADME, organism-based, Canis lupus familiaris; design: dose 1 mg/kg, route intravenous; details: in vivo
[11] = Clearance in cynomolgus monkey at 1 mg/kg, iv; format: ADME, organism-based, Macaca fascicularis; design: dose 1 mg/kg, route intravenous; details: in vivo
[12] = Volume of distribution at steady state in Beagle dog at 1 mg/kg, iv; format: ADME, organism-based, Canis lupus familiaris; design: dose 1 mg/kg, route intravenous; details: in vivo, read-out: Vdss
[13] = Half life in Beagle dog at 1 mg/kg, iv; format: ADME, organism-based, Canis lupus familiaris; design: dose 1 mg/kg, route intravenous; details: in vivo
[14] = Volume of distribution at steady state in cynomolgus monkey at 1 mg/kg, iv; format: ADME, organism-based, Macaca fascicularis; design: dose 1 mg/kg, route intravenous; details: in vivo, read-out: Vdss
[15] = Oral bioavailability in cynomolgus monkey at 3 mg/kg; format: ADME, organism-based, Macaca fascicularis; details: in vivo
[16] = Half life in cynomolgus monkey at 1 mg/kg, iv; format: ADME, organism-based, Macaca fascicularis; design: dose 1 mg/kg, route intravenous; details: in vivo

Row | SMILES | IC50 [1] [nM] | Activity [3] | CC50 [2] [nM] | Activity [7] | other results
1 | CN1CCC(N(C)c2cccc3nc(CN(C)[C@H]4CCCc5cccnc54)cn23)CC1 | 49 | Active | 12500 |  | 
2 | CN1CCN(c2cccc3nc(CN(Cc4ccccc4)[C@H]4CCCc5cccnc54)cn23)CC1 | 28 | Active | 9300 |  | 
3 | CN1CCC(N(C)c2cccc3nc(CN(C)[C@H]4CCCc5cccnc54)cn23)C1 (some centres undefined) | 30 | Active | 10800 | 1.3 | 
4 | CC(C)N(Cc1cn2c(N3CCN(C)CC3)cccc2n1)[C@H]1CCCc2cccnc21 | 5 | Active | 8900 | 5 | 
5 | CN(Cc1cn2c(N3CCOCC3)cccc2n1)C1CCCc2cccnc21 (racemic) | 690 | Active | > 10000 |  | 
6 | CC(C)CN(Cc1cn2c(N3CCN(C)CC3)cccc2n1)[C@H]1CCCc2cccnc21 | 23 | Active | 20000 |  | 
7 | CN1CCN(c2cccc3nc(CN(CC4CC4)[C@H]4CCCc5cccnc54)cn23)CC1 | 4 | Active | 8000 | 6 | clearance [4]: 9.9 mL/min/kg; Vd [5]: 6 L/kg; bioavailability [6]: 31%; half-life [8]: 8.8 h
8 | CN1CCN(c2cccc3nc(CN(C)[C@H]4CCCc5cccnc54)[nH]c23)CC1 |  | Active | > 5000 | 80 | 
9 | CN1CCN(c2cccc3nc(CN(C)[C@@H]4CCCc5cccnc54)cn23)CC1 | 84 | Active | 12600 |  | 
10 | CN(C)[C@@H]1CCN(c2cccc3nc(CN(C)[C@H]4CCCc5cccnc54)cn23)C1 | 43 | Active | 4900 | 5 | 
11 | CN1CCN(c2cccn3cc(CN(C)[C@H]4CCCc5cccnc54)nc23)CC1 | 640 | Active | > 5000 |  | 
12 | CCN1CCN(c2cccc3nc(CN(C)[C@H]4CCCc5cccnc54)cn23)CC1 | 4 | Active | 3900 | 10 | 
13 | CN(Cc1cn2c(N3CCC(N)CC3)cccc2n1)[C@H]1CCCc2cccnc21 | 4 | Active | 6300 |  | 
14 | CN1CCN(c2cccc3nc(CN(CC(F)(F)F)C4CCCc5cccnc54)cn23)CC1 (racemic) | 127 | Active | > 5000 |  | 
15 | CN(C)[C@H]1CCN(c2cccc3nc(CN(C)[C@H]4CCCc5cccnc54)cn23)C1 | 8 | Active | 2100 | 3 | clearance [4]: 9.5 mL/min/kg; Vd [5]: 4.5 L/kg; bioavailability [6]: 2%; half-life [8]: 7.9 h

More lines, in order of falling IC50 [1], values ahead:

Row | IC50 [1] [nM] | Activity [3] | SMILES | CC50 [2] [nM] | Activity [7] | other results
16 | 4 | Active | CN(Cc1cn2c(N3CCN4CCCC4C3)cccc2n1)[C@H]1CCCc2cccnc21 (some centres undefined) | 3900 |  | 
17 | 4 | Active | CN(C)C1CCN(c2cccc3nc(CN(C)[C@H]4CCCc5cccnc54)cn23)CC1 | 3400 | 8 | clearance [4]: 5.7 mL/min/kg; Vd [5]: 5.1 L/kg; bioavailability [6]: 7%; half-life [8]: 10 h
18 | 3 | Active | CCCN(Cc1cn2c(N3CCN(C)CC3)cccc2n1)[C@H]1CCCc2cccnc21 | 6700 | 5 | clearance [4]: 8.9 mL/min/kg; Vd [5]: 6.2 L/kg; bioavailability [6]: 41%; half-life [8]: 10.7 h
19 | 3 | Active | CCCCN(Cc1cn2c(N3CCN(C)CC3)cccc2n1)[C@H]1CCCc2cccnc21 | 5300 |  | 
20 | 3 | Active | CC(C)N1CCN(c2cccc3nc(CN(C)[C@H]4CCCc5cccnc54)cn23)CC1 | 7100 | 3.3 | clearance [4]: 31 mL/min/kg; Vd [5]: 10.6 L/kg; bioavailability [6]: 29%; half-life [8]: 3.9 h
21 | 2 | Active | CN1CCN(c2cccc3nc(CN(C)[C@H]4CCCc5cccnc54)cn23)CC1 | 4500 | 1.5 | clearance [4]: 14 mL/min/kg; Vd [5]: 4.9 L/kg; bioavailability [9]: 13%; bioavailability [6]: 11%; clearance [10]: 18 mL/min/kg; clearance [11]: 6 mL/min/kg; Vd [12]: 8.5 L/kg; half-life [13]: 7.6 h; Vd [14]: 3.7 L/kg; half-life [8]: 5.5 h; bioavailability [15]: 10%; half-life [16]: 10 h
22 | 2 | Active | CCN(Cc1cn2c(N3CCN(C)CC3)cccc2n1)[C@H]1CCCc2cccnc21 | 8100 | 1.5 | 
